Assay results: the NIST ThermoML archive (doi:10.1021/je5005752)

Test: xn = mol fraction of the nth substance listed
Conditions: 101 kPa, Liquid; for viscosity: Falling or rolling sphere viscometry; for mass density: Vibrating tube method

CCCC(=O)OCC [ethyl butanoate] + CCCCO
Conditions | mass density, 308.15 K [kg/m3] | mass density, 313.15 K [kg/m3] | mass density, 318.15 K [kg/m3] | mass density, 323.15 K [kg/m3] | viscosity, 308.15 K [mPa·s] | viscosity, 313.15 K [mPa·s] | viscosity, 318.15 K [mPa·s] | viscosity, 323.15 K [mPa·s]
x1 = 0.1 | 806.58 | 802.44 | 798.28 | 794.08 | 1.479 | 1.342 | 1.204 | 1.109
x1 = 0.2001 | 814.33 | 809.99 | 805.63 | 801.22 | 1.174 | 1.078 | 0.9786 | 0.9039
x1 = 0.2999 | 821.63 | 817.12 | 812.57 | 807.99 | 0.9797 | 0.9078 | 0.8314 | 0.7743
x1 = 0.3998 | 828.5 | 823.82 | 819.12 | 814.38 | 0.852 | 0.7938 | 0.7327 | 0.685
x1 = 0.5 | 835.01 | 830.18 | 825.33 | 820.45 | 0.7542 | 0.7053 | 0.6556 | 0.6163
x1 = 0.5999 | 841.14 | 836.19 | 831.21 | 826.2 | 0.6973 | 0.6517 | 0.6088 | 0.5736
x1 = 0.6998 | 846.94 | 841.87 | 836.78 | 831.66 | 0.6428 | 0.6037 | 0.5678 | 0.5372
x1 = 0.7999 | 852.47 | 847.3 | 842.11 | 836.9 | 0.6063 | 0.57 | 0.5382 | 0.5114
x1 = 0.9001 | 857.82 | 852.56 | 847.29 | 842 | 0.583 | 0.5487 | 0.5197 | 0.4942
x1 = 1 | 863.02 | 857.7 | 852.36 | 847 | 0.5736 | 0.5425 | 0.5132 | 0.487
